Experimental data from PubChem BioAssay (NCI).
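Where inhibition never reached the appropriate level, the endpoint shown equals the highest concentration tested. Otherwise, values were interpolated linearly from a five-concentration, 48-hour dose response in 96-well plates. TGI: total growth inhibition.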

Legend:
Test in all cases: NCI anticancer screen, dose series, 48 h
[1] = tested on: A498 renal
[2] = tested on: CAKI-1 renal
[3] = tested on: DU-145 prostate
[4] = tested on: EKVX NSCLC
[5] = tested on: HCT-15 colon
[6] = tested on: HT29 colon
[7] = tested on: MCF7 breast
[8] = tested on: MDA-N
[9] = tested on: MOLT-4 leukemia
[10] = tested on: OVCAR-3 ovarian
[11] = tested on: PC-3 prostate
[12] = tested on: RXF 393 renal
[13] = tested on: SF-268 CNS
[14] = tested on: SK-OV-3 ovarian
[15] = tested on: SNB-75 CNS
[16] = tested on: SW-620 colon
[17] = tested on: UACC-257 melanoma
[18] = tested on: BT-549 breast

SMILES | TGI [1] | TGI [2] | TGI [3] | TGI [4] | TGI [5] | TGI [6] | TGI [7] | TGI [8] | TGI [9] | TGI [10] | TGI [11] | TGI [12] | TGI [13] | TGI [14] | TGI [15] | TGI [16] | TGI [17] | TGI [18]
N#Cc1nc(/C=C/c2cccnc2)oc1N | > 100 µM | > 100 µM | > 100 µM | > 100 µM | > 100 µM | > 100 µM | > 100 µM | > 100 µM | > 100 µM | > 100 µM | > 100 µM | > 100 µM | > 100 µM | > 100 µM | > 100 µM | > 100 µM | > 100 µM | –
CC(=O)c1sc2[n+](c1C)C(=O)/C(=C\c1ccccc1Cl)S2 | 74.3 µM | 41 µM | 33.6 µM | 80.7 µM | 27.1 µM | 39.2 µM | 29.8 µM | 44 µM | > 100 µM | 35.8 µM | 49.9 µM | 47.4 µM | 64.5 µM | 47.7 µM | 65.9 µM | 31.1 µM | 42.3 µM | –
Cn1cc(NC(=O)Nc2cc(C(=O)Nc3cc(C(=O)Nc4cc(S(=O)(=O)O)c5cc(S(=O)(=O)O)cc(S(=O)(=O)O)c5c4)n(C)c3)n(C)c2)cc1C(=O)Nc1cc(C(=O)Nc2cc(S(=O)(=O)O)c3cc(S(=O)(=O)O)cc(S(=O)(=O)O)c3c2)n(C)c1 | – | – | > 100 µM | > 100 µM | > 100 µM | > 100 µM | > 100 µM | > 100 µM | > 100 µM | > 100 µM | > 100 µM | > 100 µM | > 100 µM | > 100 µM | > 100 µM | > 100 µM | > 100 µM | > 100 µM
Cc1cc(=O)oc2c(CNC(CC(C)C)C(=O)O)c(O)ccc12 (stereo not drawn) | – | > 100 µM | > 100 µM | > 100 µM | > 100 µM | > 100 µM | > 100 µM | > 100 µM | > 100 µM | > 100 µM | > 100 µM | > 100 µM | > 100 µM | > 100 µM | > 100 µM | > 100 µM | > 100 µM | –
COC(=O)c1ccc(NCC2=C(Br)C(=O)C=CC2=O)cc1Cl | > 100 µM | 70.6 µM | 42.5 µM | 27.9 µM | 29.2 µM | 32.6 µM | 30.9 µM | 35.8 µM | > 100 µM | 26.8 µM | 43.8 µM | – | 35.1 µM | > 100 µM | > 100 µM | 30.8 µM | 72.2 µM | 26.1 µM
CC(=O)NC1C(OCc2ccccc2)OC(CO)C(O)C1OCC(=O)N[C@@H](C)C(=O)N[C@H](CCC(=O)NCCCNc1ccc([N+](=O)[O-])c2[nH]c3ccccc3c(=O)c12)C(N)=O (stereo partly drawn) | > 100 µM | > 100 µM | > 100 µM | > 100 µM | > 100 µM | > 100 µM | – | > 100 µM | – | > 100 µM | > 100 µM | > 100 µM | – | > 100 µM | > 100 µM | > 100 µM | > 100 µM | 96.9 µM
